Description: More particularly, silver ion solubility [Ag+], a value given in mol/L may be calculated using the formula: […]

Silver Ion Solubility [Ag+]: 13 µM
SMILES: [Cl][Ag] [Silver chloride]

— US20190327975A1, “AN ANTIMICROBIAL COMPOSITION” (Conopco, Inc., d/b/a UNILEVER, priority 2016, published 2019)
